Experimental data from patent US20230310428A1, “EGFR INHIBITOR AND PREPARATION METHOD AND USE THEREOF” (HONGYUN BIOTECH CO., LTD., priority 2020, published 2023).

Columns and labels:
Assay in all cases: Growth inhibitory activity of compounds on BaF3 cell lines stably transfected with kinase (MTS, 48 h)
Type in all cases: cell-based
[1] = target: T1, various mutants of kinase EGFR (BaF3 cell lines stably transfected with kinase) (Homo sapiens, UniProt P00533); details: BaF3 cells stably transfected with EGFR Δ19Del, read-out: IC50, growth inhibition, Δ19Del
T1 construct: other: BaF3 cells stably transfected with EGFR Δ19Del; MTS, 48 h; other: BaF3 cell line stably transfected with EGFR Δ19Del
T1 sequence (P00533 with tags, fused parts or gaps DEL746-750): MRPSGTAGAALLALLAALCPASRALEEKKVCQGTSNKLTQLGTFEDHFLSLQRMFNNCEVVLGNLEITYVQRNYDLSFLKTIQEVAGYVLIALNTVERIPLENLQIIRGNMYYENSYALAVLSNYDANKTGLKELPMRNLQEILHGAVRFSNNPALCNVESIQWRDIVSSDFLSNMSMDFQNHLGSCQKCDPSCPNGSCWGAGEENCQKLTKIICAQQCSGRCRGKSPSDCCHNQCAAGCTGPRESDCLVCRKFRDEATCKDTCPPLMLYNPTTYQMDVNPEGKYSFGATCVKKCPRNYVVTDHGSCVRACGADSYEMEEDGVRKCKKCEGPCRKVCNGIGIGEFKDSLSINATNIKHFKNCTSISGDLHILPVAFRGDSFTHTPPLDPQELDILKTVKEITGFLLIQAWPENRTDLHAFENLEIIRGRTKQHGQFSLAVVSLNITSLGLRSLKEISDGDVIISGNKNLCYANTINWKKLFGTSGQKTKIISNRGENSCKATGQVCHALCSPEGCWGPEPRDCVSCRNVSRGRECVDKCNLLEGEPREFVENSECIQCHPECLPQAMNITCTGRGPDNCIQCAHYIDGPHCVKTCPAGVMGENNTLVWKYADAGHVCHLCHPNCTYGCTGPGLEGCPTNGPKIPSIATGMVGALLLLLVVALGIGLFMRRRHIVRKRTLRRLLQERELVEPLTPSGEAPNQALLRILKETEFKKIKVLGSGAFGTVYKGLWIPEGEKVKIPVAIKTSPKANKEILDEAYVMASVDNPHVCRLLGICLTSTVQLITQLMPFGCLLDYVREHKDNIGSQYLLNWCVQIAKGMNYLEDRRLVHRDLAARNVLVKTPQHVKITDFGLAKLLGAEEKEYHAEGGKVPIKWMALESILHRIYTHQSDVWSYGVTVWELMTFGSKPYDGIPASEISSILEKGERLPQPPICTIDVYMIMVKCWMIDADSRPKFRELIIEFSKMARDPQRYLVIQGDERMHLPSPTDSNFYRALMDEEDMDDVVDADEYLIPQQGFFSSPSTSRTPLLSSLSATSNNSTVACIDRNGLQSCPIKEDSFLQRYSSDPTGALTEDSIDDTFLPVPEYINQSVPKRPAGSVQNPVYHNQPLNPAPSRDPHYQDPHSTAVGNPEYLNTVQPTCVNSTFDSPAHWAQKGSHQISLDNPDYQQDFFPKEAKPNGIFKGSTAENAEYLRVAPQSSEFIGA
Method in brief: (§1)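 Growth is measured by MTS reduction (OD 490 nm) after 48 h compound exposure at up to 10 µM in 8 steps of 1/3. Inhibition is calculated against a 0.1% DMSO control and cell-free blank, and IC50 is derived from it.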

[2] = target: T2, various mutants of kinase EGFR (BaF3 cell lines stably transfected with kinase) (Homo sapiens, UniProt P00533, T790M, form not given); details: BaF3 cells stably transfected with EGFR Δ19Del/T790M, read-out: IC50, growth inhibition, Δ19Del/T790M
T2 construct: other: BaF3 cells stably transfected with EGFR Δ19Del/T790M; MTS, 48 h; other: BaF3 cell line stably transfected with EGFR Δ19Del/T790M; MTS, 48
T2 sequence (P00533 with tags, fused parts or gaps DEL746-750/T790M, form open): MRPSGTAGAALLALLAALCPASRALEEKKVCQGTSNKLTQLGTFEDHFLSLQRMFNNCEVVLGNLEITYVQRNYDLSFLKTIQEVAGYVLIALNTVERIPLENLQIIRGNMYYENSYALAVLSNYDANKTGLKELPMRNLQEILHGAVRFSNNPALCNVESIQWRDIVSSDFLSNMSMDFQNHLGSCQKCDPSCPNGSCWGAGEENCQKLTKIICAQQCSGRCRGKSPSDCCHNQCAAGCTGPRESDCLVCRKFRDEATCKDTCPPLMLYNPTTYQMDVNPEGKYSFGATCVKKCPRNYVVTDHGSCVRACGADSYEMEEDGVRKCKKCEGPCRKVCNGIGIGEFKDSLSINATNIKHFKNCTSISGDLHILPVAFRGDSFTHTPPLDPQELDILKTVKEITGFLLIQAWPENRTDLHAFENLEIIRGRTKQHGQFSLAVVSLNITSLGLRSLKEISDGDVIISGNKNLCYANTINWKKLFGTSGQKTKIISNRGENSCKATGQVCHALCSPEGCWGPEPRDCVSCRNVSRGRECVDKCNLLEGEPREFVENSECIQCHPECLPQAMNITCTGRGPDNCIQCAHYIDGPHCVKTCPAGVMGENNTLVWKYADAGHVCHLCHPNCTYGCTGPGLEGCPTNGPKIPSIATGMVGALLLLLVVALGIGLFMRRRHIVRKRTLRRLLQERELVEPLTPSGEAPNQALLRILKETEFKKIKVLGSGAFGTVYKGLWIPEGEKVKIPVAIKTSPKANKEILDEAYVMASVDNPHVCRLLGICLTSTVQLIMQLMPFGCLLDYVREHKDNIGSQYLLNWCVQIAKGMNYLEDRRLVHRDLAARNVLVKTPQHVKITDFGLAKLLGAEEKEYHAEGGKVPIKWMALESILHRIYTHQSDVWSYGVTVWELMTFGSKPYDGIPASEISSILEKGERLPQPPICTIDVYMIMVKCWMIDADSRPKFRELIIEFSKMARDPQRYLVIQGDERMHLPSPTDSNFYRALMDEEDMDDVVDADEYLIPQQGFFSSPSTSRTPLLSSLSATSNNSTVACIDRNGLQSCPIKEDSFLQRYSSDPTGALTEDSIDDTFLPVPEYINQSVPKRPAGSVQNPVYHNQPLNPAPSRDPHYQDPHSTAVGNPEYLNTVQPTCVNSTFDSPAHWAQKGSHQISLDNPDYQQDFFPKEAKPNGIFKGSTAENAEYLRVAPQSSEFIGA
Method in brief: as §1

[3] = target: T3, various mutants of kinase EGFR (BaF3 cell lines stably transfected with kinase) (Homo sapiens, UniProt P00533, T790M/C797S, form not given); details: BaF3 cells stably transfected with EGFR Δ19Del/T790M/C797S, read-out: IC50, growth inhibition, Δ19Del/T790M/C797S
T3 construct: other: BaF3 cells stably transfected with EGFR Δ19Del/T790M/C797S; MTS, 48; other: BaF3 cell line stably transfected with EGFR Δ19Del/T790M/C7
Method in brief: as §1

[4] = target: T4, various mutants of kinase EGFR (BaF3 cell lines stably transfected with kinase) (Homo sapiens, UniProt P00533, L858R); details: BaF3 cells stably transfected with EGFR L858R, read-out: IC50, growth inhibition, L858R
T4 construct: expressed in transfected cells; host or cells: BaF3
T4 sequence (P00533 25-1210 L858R): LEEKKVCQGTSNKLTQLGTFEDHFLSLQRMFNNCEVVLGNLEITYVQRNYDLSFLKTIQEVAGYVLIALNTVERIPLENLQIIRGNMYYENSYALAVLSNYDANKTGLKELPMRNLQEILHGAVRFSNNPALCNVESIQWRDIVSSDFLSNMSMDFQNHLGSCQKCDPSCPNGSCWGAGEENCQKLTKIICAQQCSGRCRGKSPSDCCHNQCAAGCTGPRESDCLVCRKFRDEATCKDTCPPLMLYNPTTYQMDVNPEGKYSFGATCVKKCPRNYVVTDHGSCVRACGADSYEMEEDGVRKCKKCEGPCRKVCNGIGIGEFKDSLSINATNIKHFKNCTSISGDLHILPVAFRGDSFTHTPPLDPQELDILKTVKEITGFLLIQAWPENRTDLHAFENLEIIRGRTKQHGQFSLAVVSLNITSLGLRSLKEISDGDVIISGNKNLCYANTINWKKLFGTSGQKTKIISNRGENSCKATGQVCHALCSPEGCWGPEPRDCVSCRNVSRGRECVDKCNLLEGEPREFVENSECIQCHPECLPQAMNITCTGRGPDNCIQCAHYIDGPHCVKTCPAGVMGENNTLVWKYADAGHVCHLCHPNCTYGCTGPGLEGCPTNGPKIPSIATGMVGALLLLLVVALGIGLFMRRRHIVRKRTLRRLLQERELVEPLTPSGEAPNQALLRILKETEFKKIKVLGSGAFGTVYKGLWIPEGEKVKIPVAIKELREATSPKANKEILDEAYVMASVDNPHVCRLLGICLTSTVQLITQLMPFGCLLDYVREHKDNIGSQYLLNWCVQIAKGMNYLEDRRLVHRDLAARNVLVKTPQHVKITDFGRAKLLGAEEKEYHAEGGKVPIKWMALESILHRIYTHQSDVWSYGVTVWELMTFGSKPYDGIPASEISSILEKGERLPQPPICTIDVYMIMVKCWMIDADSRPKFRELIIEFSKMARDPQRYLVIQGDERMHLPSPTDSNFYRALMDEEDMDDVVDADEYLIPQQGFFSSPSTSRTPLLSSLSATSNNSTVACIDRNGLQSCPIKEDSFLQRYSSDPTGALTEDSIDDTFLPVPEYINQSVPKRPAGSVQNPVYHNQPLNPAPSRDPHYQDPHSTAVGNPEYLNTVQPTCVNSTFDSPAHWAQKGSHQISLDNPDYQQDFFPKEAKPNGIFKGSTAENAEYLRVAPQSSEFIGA
Method in brief: as §1

[5] = target: T5, various mutants of kinase EGFR (BaF3 cell lines stably transfected with kinase) (Homo sapiens, UniProt P00533, L858R/T790M); details: BaF3 cells stably transfected with EGFR L858R/T790M, read-out: IC50, growth inhibition, L858R/T790M
T5 construct: expressed in transfected cells; host or cells: BaF3
Method in brief: as §1

[6] = target: T6, various mutants of kinase EGFR (BaF3 cell lines stably transfected with kinase) (Homo sapiens, UniProt P00533, C797S/L858R/T790M); details: BaF3 cells stably transfected with EGFR L858R/T790M/C797S, read-out: IC50, growth inhibition, L858R/T790M/C797S
T6 construct: expressed in transfected cells; host or cells: BaF3
T6 sequence (P00533 25-1210 T790M/C797S/L858R): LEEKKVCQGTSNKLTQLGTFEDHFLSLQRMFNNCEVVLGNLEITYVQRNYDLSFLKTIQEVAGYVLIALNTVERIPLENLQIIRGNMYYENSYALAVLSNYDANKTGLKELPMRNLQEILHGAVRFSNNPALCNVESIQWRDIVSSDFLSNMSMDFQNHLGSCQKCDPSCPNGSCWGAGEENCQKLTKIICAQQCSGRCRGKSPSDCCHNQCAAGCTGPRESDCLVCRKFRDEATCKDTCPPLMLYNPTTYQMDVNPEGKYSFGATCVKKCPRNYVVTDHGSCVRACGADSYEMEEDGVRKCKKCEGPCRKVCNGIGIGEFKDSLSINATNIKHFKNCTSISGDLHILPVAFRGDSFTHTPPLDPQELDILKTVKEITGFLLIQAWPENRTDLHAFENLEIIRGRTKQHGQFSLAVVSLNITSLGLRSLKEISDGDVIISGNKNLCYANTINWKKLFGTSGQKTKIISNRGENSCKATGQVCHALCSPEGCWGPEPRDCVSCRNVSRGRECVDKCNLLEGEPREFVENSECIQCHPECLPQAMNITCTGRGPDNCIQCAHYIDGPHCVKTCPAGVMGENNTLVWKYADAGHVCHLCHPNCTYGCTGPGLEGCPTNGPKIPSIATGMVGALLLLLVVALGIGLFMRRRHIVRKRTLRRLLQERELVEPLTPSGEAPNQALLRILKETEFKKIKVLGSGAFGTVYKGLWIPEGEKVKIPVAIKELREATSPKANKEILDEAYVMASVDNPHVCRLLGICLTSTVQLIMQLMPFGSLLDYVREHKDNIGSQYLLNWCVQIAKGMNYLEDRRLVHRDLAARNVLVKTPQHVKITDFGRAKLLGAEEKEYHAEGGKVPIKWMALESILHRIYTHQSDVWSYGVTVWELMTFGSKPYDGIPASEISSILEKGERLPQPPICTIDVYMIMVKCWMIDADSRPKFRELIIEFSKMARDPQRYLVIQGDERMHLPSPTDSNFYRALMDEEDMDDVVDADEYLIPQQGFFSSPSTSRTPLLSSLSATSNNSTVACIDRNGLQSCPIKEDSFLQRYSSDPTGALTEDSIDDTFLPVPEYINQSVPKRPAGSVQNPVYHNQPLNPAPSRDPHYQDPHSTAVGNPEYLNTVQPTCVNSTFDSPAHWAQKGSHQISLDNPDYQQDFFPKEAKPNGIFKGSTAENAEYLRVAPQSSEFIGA
Method in brief: as §1

| Structure (SMILES) | IC50 [1] [nM] | IC50 [2] [nM] | IC50 [3] [nM] | IC50 [4] [nM] | IC50 [5] [nM] | IC50 [6] [nM] |
| --- | --- | --- | --- | --- | --- | --- |
| COc1cc(N2CCC(N3CCN(C)CC3)CC2)c(CC2CC2)cc1Nc1ncc(Br)c(Nc2ccc3nccnc3c2N(C)S(=O)(=O)C(F)(F)F)n1 [Compound I-259] | 500 to 2500 | 500 to 2500 | 50 to 500 | 500 to 2500 | 500 to 2500 | 50 to 500 |
| CCc1cc(Nc2ncc(Br)c(Nc3ccc4nccnc4c3N(C)S(=O)(=O)C(F)(F)F)n2)c(OC)cc1N1CCN(C)CC1 [Compound I-260] | 500 to 2500 | 50 to 500 | ≤ 50 | 500 to 2500 | 50 to 500 | 50 to 500 |
| COc1cc(N2CCC(N3CCN(C)CC3)CC2)ccc1Nc1ncc(Cl)c(Nc2ccc3nccnc3c2N(C)S(=O)(=O)C(F)(F)F)n1 [Compound I-261] | 500 to 2500 | 50 to 500 | 50 to 500 | 500 to 2500 | 50 to 500 | 50 to 500 |
| CCc1cc(Nc2ncc(Cl)c(Nc3ccc4nccnc4c3N(C)S(=O)(=O)C(F)(F)F)n2)c(OC)nc1N1CCC(N2CCN(C)CC2)CC1 [Compound I-262] | 500 to 2500 | 50 to 500 | 50 to 500 | 500 to 2500 | 500 to 2500 | 50 to 500 |
| C=Cc1cc(Nc2ncc(Cl)c(Nc3ccc4nccnc4c3N(C)S(=O)(=O)C(F)(F)F)n2)c(OC(F)(F)F)cc1N1CCC(N2CCN(C)CC2)CC1 [Compound I-263] | 500 to 2500 | 50 to 500 | 50 to 500 | 500 to 2500 | 500 to 2500 | 50 to 500 |
| COc1cc(N2CCC(N3CCN(C)CC3)CC2)c(CC2CC2)cc1Nc1ncc(Cl)c(Nc2ccc3nccnc3c2N(C)S(=O)(=O)C(F)(F)F)n1 [Compound I-264] | 500 to 2500 | 500 to 2500 | 50 to 500 | 500 to 2500 | 500 to 2500 | 50 to 500 |
| COc1cc(N2CCC(N(C)C)CC2)c(C)cc1Nc1ncc(Cl)c(Nc2ccc3nccnc3c2N(C)S(=O)(=O)C(F)(F)F)n1 [Compound I-265] | 500 to 2500 | 500 to 2500 | 50 to 500 | 500 to 2500 | 500 to 2500 | 50 to 500 |
| COc1cc(N2CCN(C)CC2)c(C)cc1Nc1ncc(Cl)c(Nc2ccc3nccnc3c2N(C)S(=O)(=O)C(F)(F)F)n1 [Compound I-266] | 500 to 2500 | 500 to 2500 | 500 to 2500 | 500 to 2500 | 500 to 2500 | 50 to 500 |
| CCc1cc(Nc2ncc(Cl)c(Nc3ccc4nccnc4c3N(C)S(=O)(=O)C(F)(F)F)n2)c(OC)cc1N1CCN(C)CC1 [Compound I-267] | 50 to 500 | 50 to 500 | 50 to 500 | 50 to 500 | 50 to 500 | 50 to 500 |
| COc1cc(N2CCC(N(C)C)C2)c(C)cc1Nc1ncc(Cl)c(Nc2ccc3nccnc3c2N(C)S(=O)(=O)C(F)(F)F)n1 (stereo not drawn) [Compound I-268] | 500 to 2500 | 500 to 2500 | 50 to 500 | 500 to 2500 | 500 to 2500 | 50 to 500 |
| CCc1cc(Nc2ncc(C3CC3)c(Nc3ccc4nccnc4c3N(C)S(C)(=O)=O)n2)c(OC)cc1N1CCC(N2CCN(C)CC2)CC1 [Compound I-269] | ≤ 50 | ≤ 50 | ≤ 50 | ≤ 50 | ≤ 50 | ≤ 50 |
| CCc1cc(Nc2ncc(C3CC3)c(Nc3ccc4nccnc4c3N(C)S(C)(=O)=O)n2)c(OC)nc1N1CCC(N2CCN(C)CC2)CC1 [Compound I-270] | 50 to 500 | 50 to 500 | ≤ 50 | ≤ 50 | 50 to 500 | ≤ 50 |
| C=Cc1cc(Nc2ncc(C3CC3)c(Nc3ccc4nccnc4c3N(C)S(C)(=O)=O)n2)c(OC(F)(F)F)cc1N1CCC(N2CCN(C)CC2)CC1 [Compound I-271] | 50 to 500 | 50 to 500 | ≤ 50 | 50 to 500 | 50 to 500 | ≤ 50 |

Continued, values first:

| IC50 [1] [nM] | IC50 [2] [nM] | IC50 [3] [nM] | IC50 [4] [nM] | IC50 [5] [nM] | IC50 [6] [nM] | Structure (SMILES) |
| --- | --- | --- | --- | --- | --- | --- |
| ≤ 50 | ≤ 50 | ≤ 50 | ≤ 50 | ≤ 50 | ≤ 50 | COc1cc(N2CCC(N(C)C)CC2)c(C)cc1Nc1ncc(C2CC2)c(Nc2ccc3nccnc3c2N(C)S(C)(=O)=O)n1 [Compound I-272] |
| ≤ 50 | ≤ 50 | ≤ 50 | ≤ 50 | ≤ 50 | ≤ 50 | CCc1cc(Nc2ncc(C3CC3)c(Nc3ccc4nccnc4c3N(C)S(C)(=O)=O)n2)c(OC)cc1N1CCC(N(C)C)CC1 [Compound I-273] |
| 50 to 500 | 50 to 500 | ≤ 50 | 50 to 500 | 50 to 500 | 50 to 500 | COc1cc(N2CCC(N(C)C)C2)c(C)cc1Nc1ncc(C2CC2)c(Nc2ccc3nccnc3c2N(C)S(C)(=O)=O)n1 (stereo not drawn) [Compound I-274] |
| ≤ 50 | ≤ 50 | ≤ 50 | ≤ 50 | 50 to 500 | ≤ 50 | CCc1cc(Nc2ncc(C3CC3)c(Nc3ccc4nccnc4c3N(C)S(C)(=O)=O)n2)c(OC)cc1N1CCC(N(C)C)C1 (stereo not drawn) [Compound I-275] |
| ≤ 50 | ≤ 50 | ≤ 50 | ≤ 50 | ≤ 50 | ≤ 50 | COc1cc(N2CCC(N3CCN(C)CC3)CC2)c(C)cc1Nc1ncc(C)c(Nc2ccc3nccnc3c2N(C)S(C)(=O)=O)n1 [Compound I-276] |
| ≤ 50 | ≤ 50 | ≤ 50 | ≤ 50 | ≤ 50 | ≤ 50 | CCc1cc(Nc2ncc(C)c(Nc3ccc4nccnc4c3N(C)S(C)(=O)=O)n2)c(OC)cc1N1CCC(N2CCN(C)CC2)CC1 [Compound I-277] |
| ≤ 50 | ≤ 50 | ≤ 50 | ≤ 50 | ≤ 50 | ≤ 50 | CCc1cc(Nc2ncc(C)c(Nc3ccc4nccnc4c3N(C)S(C)(=O)=O)n2)c(OC)nc1N1CCC(N2CCN(C)CC2)CC1 [Compound I-278] |
| ≤ 50 | ≤ 50 | ≤ 50 | ≤ 50 | ≤ 50 | ≤ 50 | CCc1cc(Nc2ncc(C)c(Nc3ccc4nccnc4c3N(C)S(C)(=O)=O)n2)c(OC)cc1N1CCC(N(C)C)CC1 [Compound I-279] |
| ≤ 50 | ≤ 50 | ≤ 50 | ≤ 50 | ≤ 50 | ≤ 50 | CCc1cc(Nc2ncc(C)c(Nc3ccc4nccnc4c3N(C)S(C)(=O)=O)n2)c(OC)cc1N1CCC(N(C)C)C1 (stereo not drawn) [Compound I-280] |
| ≤ 50 | ≤ 50 | ≤ 50 | ≤ 50 | ≤ 50 | ≤ 50 | CCc1cc(Nc2ncc(OC)c(Nc3ccc4nccnc4c3N(C)S(C)(=O)=O)n2)c(OC(F)(F)F)cc1N1CCC(N2CCN(C)CC2)CC1 [Compound I-281] |
| ≤ 50 | ≤ 50 | ≤ 50 | ≤ 50 | ≤ 50 | ≤ 50 | CCc1cc(Nc2ncc(OC)c(Nc3ccc4nccnc4c3N(C)S(C)(=O)=O)n2)c(OC)cc1N1CCC(N(C)C)CC1 [Compound I-282] |
| ≤ 50 | ≤ 50 | ≤ 50 | ≤ 50 | ≤ 50 | ≤ 50 | CCc1cc(Nc2ncc(OC)c(Nc3ccc4nccnc4c3N(C)S(C)(=O)=O)n2)c(OC)cc1N1CCN(C)CC1 [Compound I-283] |
| 50 to 500 | 50 to 500 | ≤ 50 | 500 to 2500 | 50 to 500 | ≤ 50 | COc1cc(N2CCC(N3CCN(C)CC3)CC2)c(C(C)C)cc1Nc1ncc(Br)c(Nc2ccc3nccnc3c2N(C)S(C)(=O)=O)n1 [Compound I-284] |
| 50 to 500 | ≤ 50 | ≤ 50 | 50 to 500 | ≤ 50 | ≤ 50 | COc1cc(N2CCC(N3CCN(C)CC3)CC2)c(C2CC2)cc1Nc1ncc(Br)c(Nc2ccc3nccnc3c2N(C)S(C)(=O)=O)n1 [Compound I-285] |
| ≤ 50 | ≤ 50 | ≤ 50 | ≤ 50 | ≤ 50 | ≤ 50 | CCc1cc(Nc2ncc(Br)c(Nc3ccc4nccnc4c3N(C)S(C)(=O)=O)n2)ccc1N1CCC(N2CCN(C)CC2)CC1 [Compound I-286] |
